Our source for the melting point values is patent publication US7713965B2, “7-substituted 3-carboxy-oxadiazino-quinolone derivatives, their preparation and their application as anti-bacterials” (Vetoquinol SA, priority 2008, dated 2010).

Take `CN1COc2c(N3CCC(Nc4ncns4)C3)c(F)cc3c(=O)c(C(=O)O)cn1c23` (stereo not shown) (hydrate or solvate): the melting point is 285 °C (dec.).

Take `Cc1nc(NC2CCN(c3c(F)cc4c(=O)c(C(=O)O)cn5c4c3OCN5C)C2)sc1C` (stereo not shown) (hydrate or solvate): the melting point is 266 °C (dec.).

For the molecule `Cc1csc(NC2CCN(c3c(F)cc4c(=O)c(C(=O)O)cn5c4c3OCN5C)C2)n1` (stereo not shown) (hydrate or solvate), the melting point is 260 °C (dec.).

As to `Cc1cnc(NC2CCN(c3c(F)cc4c(=O)c(C(=O)O)cn5c4c3OCN5C)C2)s1` (stereo not shown) (hydrate or solvate), the melting point was 265 °C (dec.). On to `Cc1cc(NC2CCN(c3c(F)cc4c(=O)c(C(=O)O)cn5c4c3OCN5C)C2)sn1` (stereo not shown) (hydrate or solvate), for which the melting point was 265 °C. For `Cc1cc(NC2CCN(c3c(F)cc4c(=O)c(C(=O)O)cn5c4c3OCN5C)C2)on1` (stereo not shown) (hydrate or solvate), the melting point is 244 °C (dec.). As for `Cc1cc(NC2CCN(c3c(F)cc4c(=O)c(C(=O)O)cn5c4c3OCN5C)C2)no1` (stereo not shown) (hydrate or solvate), the figure is 263 °C (dec.).

Consider `CN1COc2c(N3CCC(CN(c4cnccn4)c4cnccn4)C3)c(F)cc3c(=O)c(C(=O)O)cn1c23` (stereo not shown) (hydrate or solvate), for which the melting point fell in the range of 213 to 215 °C.

Consider `CN1COc2c(N3CCC(NC4=NCCS4)C3)c(F)cc3c(=O)c(C(=O)O)cn1c23` (stereo not shown) (hydrate or solvate), for which the melting point is 265 to 267 °C.

Consider `CN1COc2c(N3CCC(n4ccnn4)C3)c(F)cc3c(=O)c(C(=O)O)cn1c23` (stereo not shown) (hydrate or solvate), for which the melting point was 264 °C (dec.). On to `CN1COc2c(N3CCC(c4nnn[nH]4)C3)c(F)cc3c(=O)c(C(=O)O)cn1c23` (stereo not shown) (hydrate or solvate), for which the melting point is 250 °C (dec.). `CN1COc2c(N3CCC(NC(=O)c4ccco4)C3)c(F)cc3c(=O)c(C(=O)O)cn1c23` (stereo not shown) (hydrate or solvate) came in with a melting point of 306 to 308 °C. Next, `CN1COc2c(N3CCC(NC(=O)CC(F)(F)F)C3)c(F)cc3c(=O)c(C(=O)O)cn1c23` (stereo not shown) (hydrate or solvate): 292 °C (dec.); `CN1COc2c(N3CCC(NS(C)(=O)=O)C3)c(F)cc3c(=O)c(C(=O)O)cn1c23` (stereo not shown) (hydrate or solvate): 261 °C (dec.); `CN1COc2c(N3CC(O)C(C)(C)C3)c(F)cc3c(=O)c(C(=O)O)cn1c23` (stereo not shown) (hydrate or solvate): 281 °C (dec.).

`CN1COc2c(N3CCC(O)(c4nccs4)C3)c(F)cc3c(=O)c(C(=O)O)cn1c23` (stereo not shown) (hydrate or solvate) registered a melting point of 252 to 253 °C. Next, `CN1COc2c(N3CCC(CNc4nccs4)C3)c(F)cc3c(=O)c(C(=O)O)cn1c23` (stereo not shown) (hydrate or solvate): 268 to 270 °C. Next, `CO/N=C1\CCN(c2c(F)cc3c(=O)c(C(=O)O)cn4c3c2OCN4C)C1` (hydrate or solvate): 241 to 243 °C; `CN1COc2c(N3CCC(Nc4cnccn4)CC3)c(F)cc3c(=O)c(C(=O)O)cn1c23` (hydrate or solvate): 239 °C (dec.); `CN1COc2c(N3CCC(Nc4ccccn4)CC3)c(F)cc3c(=O)c(C(=O)O)cn1c23` (hydrate or solvate): 264 °C (dec.). Molecule `CN1COc2c(N3CCC(Nc4nccs4)CC3)c(F)cc3c(=O)c(C(=O)O)cn1c23` (hydrate or solvate) had a melting point of 280 °C. As for `CN1COc2c(N3CCC(NC(=O)c4ccco4)CC3)c(F)cc3c(=O)c(C(=O)O)cn1c23` (hydrate or solvate), the figure is 293 to 295 °C; as for `CN1COc2c(N3CCC(N4CCCCC4)CC3)c(F)cc3c(=O)c(C(=O)O)cn1c23` (hydrate or solvate), 249 °C (dec.); as for `CN1COc2c(N3CCC(N4CCCC4)CC3)c(F)cc3c(=O)c(C(=O)O)cn1c23` (hydrate or solvate), 267 to 269 °C. As for `CN1COc2c(N3CC[C@H](NC(=O)C(F)(F)F)C3)ccc3c(=O)c(C(=O)O)cn1c23` (hydrate or solvate), the figure is 310 °C (dec.). Next, `CN1COc2c(N3CC[C@@H](Nc4nccs4)C3)ccc3c(=O)c(C(=O)O)cn1c23` (hydrate or solvate): 275 °C (dec.). `Cc1nnc(NCC2CCN(c3c(F)cc4c(=O)c(C(=O)O)cn5c4c3OCN5C)C2)o1` (stereo not shown) (hydrate or solvate) had a melting point of 240 °C. Molecule `CC1Oc2c(N3CC[C@H](NC(=O)C(F)(F)F)C3)ccc3c(=O)c(C(=O)O)cn(c23)N1C` (stereo partly shown) (hydrate or solvate) registered a melting point of 260 °C. Regarding `CC1Oc2c(N3CC[C@@H](Nc4nccs4)C3)c(F)cc3c(=O)c(C(=O)O)cn(c23)N1C` (stereo partly shown) (hydrate or solvate), the melting point was in the range of 224 to 226 °C.

In turn, `CN1n2cc(C(=O)O)c(=O)c3cc(F)c(N4CC[C@@H](Nc5nccs5)C4)c(c32)OC1(C)C` (hydrate or solvate) gave a melting point of 235 to 237 °C.

In turn, `CC1Oc2c(N3CC[C@@H](Nc4nccs4)C3)ccc3c(=O)c(C(=O)O)cn(c23)N1C` (stereo partly shown) (hydrate or solvate) had a melting point of 260 to 263 °C. As for `CN1n2cc(C(=O)O)c(=O)c3ccc(N4CC[C@@H](Nc5nccs5)C4)c(c32)OC1(C)C` (hydrate or solvate), the figure is 287 °C (dec.).

Take `CC1Oc2c(N3C[C@H](N)C(C)(C)C3)c(F)cc3c(=O)c(C(=O)O)cn(c23)N1C` (stereo partly shown) (hydrate or solvate): the melting point was in the range of 212 to 214 °C. As for `CN1COc2c(N3CCC(CNC(=O)c4ccco4)C3)c(F)cc3c(=O)c(C(=O)O)cn1c23` (stereo not shown) (hydrate or solvate), the figure is 278 to 280 °C. With `CN1n2cc(C(=O)O)c(=O)c3cc(F)c(N4C[C@H](N)C(C)(C)C4)c(c32)OC1(C)C` (hydrate or solvate), the melting point was 255 to 257 °C. With `CN1COc2c(N3C[C@@H](Nc4nccs4)C(C)(C)C3)c(F)cc3c(=O)c(C(=O)O)cn1c23` (hydrate or solvate), the melting point was 265 °C (dec.).

Consider `CN1COc2c(N3C[C@H](Nc4nccs4)C(C)(C)C3)c(F)cc3c(=O)c(C(=O)O)cn1c23` (hydrate or solvate), for which the melting point was 271 to 273 °C. Next, `CN1COc2c(N3CC[C@@H](n4ccnn4)C3)c(F)cc3c(=O)c(C(=O)O)cn1c23` (hydrate or solvate): 235 °C (dec.); `CN1COc2c(N3CC[C@H](n4ccnn4)C3)c(F)cc3c(=O)c(C(=O)O)cn1c23` (hydrate or solvate): 235 °C (dec.). As for `Cc1cc(N[C@@H]2CCN(c3c(F)cc4c(=O)c(C(=O)O)cn5c4c3OCN5C)C2)on1` (hydrate or solvate), the figure is 255 to 257 °C. As for `Cc1cc(N[C@H]2CCN(c3c(F)cc4c(=O)c(C(=O)O)cn5c4c3OCN5C)C2)on1` (hydrate or solvate), the figure is 255 to 257 °C; as for `CN1COc2c(N3CC[C@H](Nc4ncc[nH]4)C3)c(F)cc3c(=O)c(C(=O)O)cn1c23` (hydrate or solvate), 245 °C (dec.).

As to `CN1COc2c(N3CC[C@@H](Nc4ncc[nH]4)C3)c(F)cc3c(=O)c(C(=O)O)cn1c23` (hydrate or solvate), the melting point is 225 °C (dec.). Molecule `CN(c1nccs1)[C@@H]1CCN(c2c(F)cc3c(=O)c(C(=O)O)cn4c3c2OCN4C)C1` (hydrate or solvate) yielded a melting point of 222 to 224 °C.

The molecule `CN1COc2c(N3CC(N)C(c4nccs4)C3)c(F)cc3c(=O)c(C(=O)O)cn1c23` (stereo not shown) (hydrate or solvate) yielded a melting point of 240 to 245 °C. Next, `CN1COc2c(N3CC[C@@H](Nc4cnccn4)C3)c(F)cc3c(=O)c(C(=O)O)cn1c23` (hydrate or solvate): 255 °C (dec.); `Cc1nnc(NC2CCN(c3c(F)cc4c(=O)c(C(=O)O)cn5c4c3OCN5C)C2)o1` (stereo not shown) (hydrate or solvate): 285 °C; `CN1n2cc(C(=O)O)c(=O)c3cc(F)c(N4CC[C@H](NC(=O)C(F)(F)F)C4)c(c32)OC1(C)C` (hydrate or solvate) [51]: 217 to 219 °C.

`CN1n2cc(C(=O)O)c(=O)c3cc(F)c(N4CC[C@H](NC(=O)C(F)(F)F)C4)c(c32)OC1(C)C` (hydrate or solvate) [53] registered a melting point of 283 °C. `CN1COc2c(N3CCC(CNc4cnccn4)C3)c(F)cc3c(=O)c(C(=O)O)cn1c23` (stereo not shown) (hydrate or solvate) [Example 1, 8-fluoro-3-methyl-6-oxo-9-[3-(pyrazin-2-ylaminomethyl)-pyrrolidin-1-yl]-2,3-dihydro-6H-1-oxa-3,3a-diaza-phenalene-5-carboxylic acid] had a melting point of 238 to 240 °C. As for `CN1COc2c(N3CCC(Nc4cnccn4)C3)c(F)cc3c(=O)c(C(=O)O)cn1c23` (stereo not shown) (hydrate or solvate) [Example 7], the figure is 269 °C (dec.). Next, `CN1COc2c(N3CCC(Nc4ccccn4)C3)c(F)cc3c(=O)c(C(=O)O)cn1c23` (stereo not shown) (hydrate or solvate) [Example 8]: 278 to 280 °C; `CN1COc2c(N3CCC(Nc4nncs4)C3)c(F)cc3c(=O)c(C(=O)O)cn1c23` (stereo not shown) (hydrate or solvate) [Example 10, 8-Fluoro-3-methyl-6-oxo-9-[3-([1,3,4]thiadiazol-2-ylamino)-pyrrolidin-1-yl]-2,3-dihydro-6H1-oxa-3,3a-diaza-phenalene-5-carboxylic acid]: 320 °C (dec.); `CN1COc2c(N3CC[C@H](Nc4nccs4)C3)c(F)cc3c(=O)c(C(=O)O)cn1c23` (hydrate or solvate) [Example 18, 8-Fluoro-3-methyl-6-oxo-9-[(S)-3-(thiazol-2-ylamino)-pyrrolidin-1-yl]-2,3dihydro-6H-1-oxa-3,3a-diaza-phenalene-5-carboxylic acid]: 275 °C.

For the molecule `CN1COc2c(N3CC[C@@H](Nc4nccs4)C3)c(F)cc3c(=O)c(C(=O)O)cn1c23` (hydrate or solvate) [Example 19, 8-Fluoro-3-methyl-6-oxo-9-[(R)-3-(thiazol-2-ylamino)-pyrrolidin-1-yl]-2,3-dihydro-6H-1-oxa-3,3a-diaza-phenalene-5-carboxylic acid], the melting point was in the range of 245 to 250 °C.
